Data reported in patent US8410144B2, “Substituted indolo-pyridinone compounds” (ArQule, Inc., priority 2009, dated 2013).

Columns and labels:
[1] = biological target: IGF-1R (Homo sapiens, UniProt P08069); assay: IGFR1 activity assay (ELISA); format: biochemical; conditions: for inhibition at 30 µM: read-out: IGF-1R, PCT INH (30 μM), ELISA
Procedure: The disclosed compounds were assayed for their ability to inhibit insulin-like growth factor receptor-1 (IGFR1). Nunc Maxisorb plates were coated with streptavidin by overnight incubation with 100 μL per well of 1 μg/ml Streptavidin in DPBS. Prior to the start of the experiment, the plates were washed with TBST (3×200 μL) and blocked for at least 1 hour by adding 150 μL of 5% BSA/TBST. The plates were washed with TBST (3×200 μL/well) and left to dry immediately before the capture step.
The disclosed test articles and controls (Staurosporine) were prepared using the following assay buffer at 3× desired final concentration (50 mM Tris-HCl, 0.02 mg/ml BSA, 10 mM MgCl2, 0.1 mM Na3VO4, 1 mM EGTA, 12.5 μM ATP, 0.01% NP-40, 1 mM DTT in 10% glycerol/water). 20 μL of the test compounds (or control), 20 μL IGF1R (0.33 ng/μL final concentration), and 20 μL of Pyk-2 (0.05 ng/μL final concentration) were rapidly added to the reaction plate. The plate was incubated at room temperature for one hour.
50 μL was transferred from the reaction plate to the streptavidin coated plate. The capture plate was incubated at room temperature for 30 minutes, then washed with TBST three times. 100 μL/well of Cell Signaling anti-phospho tyrosine was added to the capture plate at a dilution of 1:3000 in 2% BSA/TBST. The plate was incubated for one hour at room temperature then washed 6× with TBST. 100 μL/well of alkaline phosphatase tagged goat anti mouse antibody was added to the capture plate at a dilution of 1:4000 in 2% BSA/TBST. The plate was incubated for one hour at room temperature then washed with TBST six times.
The fluorescent readout is initiated by the addition of 100 μL/well of Attophos reagent (6 mg/10 mL). The reading is done on the Perkin Elmer Envision system.

[2] = tested on: NCI-H1299; assay: MTS assay, NCI-H1299 cells; format: cell-based; conditions: 72 hours; for inhibition at 10 µM: Homo sapiens, read-out: NCI-H1299, MTS cell kill % inhibition
Procedure: (§1) Cells were maintained at 37° C., 5% CO2 in DMEM media supplemented with 1% fetal bovine serum, penicillin/streptomycin and fungizone (Invitrogen). Cells were seeded into 96-well tissue culture plates at 3000 per well and cultured at 37° C. for 18 hours. Test compounds were dissolved and diluted to 300× in DMSO then diluted 1:40 in DMEM. Cells were incubated with test compounds for 72 hours followed by incubation with tetrazolium compound (3-(4,5-dimethylthiazol-2-yl)-5-(3-carboxymethoxyphenyl)-2-(4-sulfophenyl)-2H-tetrazolium, inner salt; MTS) and the electron coupling reagent, phenazine methosulfate (PMS) for 4 hours. […] The ability of compounds to inhibit cell growth in this assay is correlated with the reduction of dehydrogenase enzyme activity found in metabolically active cells. The measurement of the absorbance of the formazan was assessed using an ENVISION™ (Perkin Elmer) microplate reader at 492 nm. The calculated IC50 value is the concentration of the test compound that causes a 50% decrease in the absorbance.

[3] = tested on: DLD-1; assay: MTS assay, DLD-1 cells; format: cell-based; conditions: 72 hours; for inhibition at 10 µM: Homo sapiens, read-out: DLD-1, MTS cell kill % inhibition
Procedure: as §1

[4] = tested on: MDA-MB-231; assay: MTS assay, MDA-MB-231 cells; format: cell-based; conditions: 72 hours; for inhibition at 10 µM: Homo sapiens, read-out: MDA-MB-231, MTS cell kill % inhibition
Procedure: as §1

[5] = tested on: KATO III; assay: MTS assay, KATO III cells; format: cell-based; conditions: 72 hours; for inhibition at 10 µM: Homo sapiens, read-out: KATO III, MTS cell kill % inhibition
Procedure: as §1

IGF-1R, sequence (P08069 31-1367): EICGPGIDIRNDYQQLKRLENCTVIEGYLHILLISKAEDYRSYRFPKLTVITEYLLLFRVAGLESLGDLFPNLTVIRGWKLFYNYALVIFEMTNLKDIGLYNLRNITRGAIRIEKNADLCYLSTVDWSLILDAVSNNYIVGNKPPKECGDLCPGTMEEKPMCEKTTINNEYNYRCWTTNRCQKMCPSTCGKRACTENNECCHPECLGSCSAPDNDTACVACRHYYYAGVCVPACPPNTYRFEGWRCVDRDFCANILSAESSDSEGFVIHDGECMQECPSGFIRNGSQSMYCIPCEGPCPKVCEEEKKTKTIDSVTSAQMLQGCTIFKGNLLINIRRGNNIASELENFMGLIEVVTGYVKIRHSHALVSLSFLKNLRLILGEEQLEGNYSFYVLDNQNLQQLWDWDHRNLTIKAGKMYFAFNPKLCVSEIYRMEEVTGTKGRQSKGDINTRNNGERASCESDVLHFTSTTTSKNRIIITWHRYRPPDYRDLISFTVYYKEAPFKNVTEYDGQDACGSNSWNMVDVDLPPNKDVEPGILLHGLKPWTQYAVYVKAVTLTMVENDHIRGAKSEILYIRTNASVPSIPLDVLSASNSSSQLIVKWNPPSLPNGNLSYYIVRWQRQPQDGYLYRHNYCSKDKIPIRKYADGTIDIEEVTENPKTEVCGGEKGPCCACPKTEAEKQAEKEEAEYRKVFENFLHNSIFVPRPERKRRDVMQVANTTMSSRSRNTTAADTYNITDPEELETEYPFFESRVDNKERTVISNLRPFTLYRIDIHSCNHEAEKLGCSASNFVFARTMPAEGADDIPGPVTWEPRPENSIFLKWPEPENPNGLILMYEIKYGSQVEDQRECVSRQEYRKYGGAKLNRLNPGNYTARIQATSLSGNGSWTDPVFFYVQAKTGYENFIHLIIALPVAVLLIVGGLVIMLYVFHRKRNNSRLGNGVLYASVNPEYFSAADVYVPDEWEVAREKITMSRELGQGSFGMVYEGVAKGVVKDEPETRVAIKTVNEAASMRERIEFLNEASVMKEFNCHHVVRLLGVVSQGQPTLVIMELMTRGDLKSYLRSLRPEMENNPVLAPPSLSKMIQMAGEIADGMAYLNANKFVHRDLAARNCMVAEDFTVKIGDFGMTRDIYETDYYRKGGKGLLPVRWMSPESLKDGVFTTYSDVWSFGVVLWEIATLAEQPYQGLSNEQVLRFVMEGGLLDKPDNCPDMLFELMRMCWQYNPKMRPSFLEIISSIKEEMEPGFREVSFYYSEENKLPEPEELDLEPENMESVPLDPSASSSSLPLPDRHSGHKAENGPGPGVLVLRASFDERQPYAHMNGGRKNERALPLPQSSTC

| Compound | inhibition at 30 µM [1] | inhibition at 10 µM [2] | inhibition at 10 µM [3] | inhibition at 10 µM [4] | inhibition at 10 µM [5] | IGF-1R, PCT INH (30 μM), ELISA [1] | NCI-H1299, MTS cell kill % inhibition ([2]; 10 μM) | DLD-1, MTS cell kill % inhibition ([3]; 10 μM) | MDA-MB-231, MTS cell kill % inhibition ([4]; 10 μM) | KATO III, MTS cell kill % inhibition ([5]; 10 μM) |
| --- | --- | --- | --- | --- | --- | --- | --- | --- | --- | --- |
| CCOC(=O)N1CCN(C(=O)c2ccc3[nH]c(-c4ccc[nH]c4=O)c(-c4ccc(-c5ccccc5)cc4)c3c2)CC1 [Compound 44, ethyl 4-{[3-biphenyl-4-yl-2-(2-oxo-1,2-dihydropyridin-3-yl)-1H-indol-5-yl]carbonyl}piperazine-1-carboxylate] | 50 to 79% | 80 to 100% | 50 to 79% | 80 to 100% | 80 to 100% | – | – | – | – | – |
| O=C(NCCCN1CCOCC1)c1ccc2[nH]c(-c3ccc[nH]c3=O)c(-c3ccc(F)cc3F)c2c1 [Compound 77, 3-(2,4-difluorophenyl)-N-(3-morpholin-4-ylpropyl)-2-(2-oxo-1,2-dihydropyridin-3-yl)-1H-indole-5-carboxamide] | 80 to 100% | < 50% | < 50% | < 50% | < 50% | – | – | – | – | – |
| COc1ccc(-c2c(-c3ccc[nH]c3=O)[nH]c3ccc(C(=O)NCCCN4CCOCC4)cc23)cc1OC [Compound 73, 3-(3,4-dimethoxyphenyl)-N-(3-morpholin-4-ylpropyl)-2-(2-oxo-1,2-dihydropyridin-3-yl)-1H-indole-5-carboxamide] | 80 to 100% | < 50% | < 50% | < 50% | < 50% | – | – | – | – | – |
| Cc1ccccc1-c1c(-c2ccc[nH]c2=O)[nH]c2ccc(C(=O)NCCCN3CCOCC3)cc12 [Compound 58, 3-(2-methylphenyl)-N-(3-morpholin-4-ylpropyl)-2-(2-oxo-1,2-dihydropyridin-3-yl)-1H-indole-5-carboxamide] | 80 to 100% | < 50% | < 50% | < 50% | < 50% | – | – | – | – | – |
| O=C(NCCCN1CCOCC1)c1ccc2[nH]c(-c3ccc[nH]c3=O)c(-c3cccc(F)c3)c2c1 [Compound 82, 3-(3-fluorophenyl)-N-(3-morpholin-4-ylpropyl)-2-(2-oxo-1,2-dihydropyridin-3-yl)-1H-indole-5-carboxamide] | 80 to 100% | 80 to 100% | 50 to 79% | < 50% | 80 to 100% | – | – | – | – | – |
| CN(C)CCCN(C)C(=O)c1ccc2[nH]c(-c3ccc[nH]c3=O)c(-c3ccc(-c4ccccc4)cc3)c2c1 [Compound 46, 3-biphenyl-4-yl-N-[3-(dimethylamino)propyl]-N-methyl-2-(2-oxo-1,2-dihydropyridin-3-yl)-1H-indole-5-carboxamide] | 80 to 100% | 80 to 100% | 80 to 100% | 80 to 100% | 80 to 100% | – | – | – | – | – |
| O=C(NCCOc1ccccc1)c1ccc2[nH]c(-c3ccc[nH]c3=O)c(-c3ccccc3)c2c1 [Compound 31, 2-(2-oxo-1,2-dihydropyridin-3-yl)-N-(2-phenoxyethyl)-3-phenyl-1H-indole-5-carboxamide] | 80 to 100% | 80 to 100% | 50 to 79% | < 50% | 80 to 100% | – | – | – | – | – |
| COc1cccc(CCNC(=O)c2ccc3[nH]c(-c4ccc[nH]c4=O)c(-c4ccccc4)c3c2)c1OC [Compound 19, N-[2-(2,3-dimethoxyphenyl)ethyl]-2-(2-oxo-1,2-dihydropyridin-3-yl)-3-phenyl-1H-indole-5-carboxamide] | 80 to 100% | 80 to 100% | 80 to 100% | 80 to 100% | 80 to 100% | – | – | – | – | – |
| Cc1ccc(-c2c(-c3ccc[nH]c3=O)[nH]c3ccc(C(=O)NCCCN4CCOCC4)cc23)cc1F [Compound 67, 3-(3-fluoro-4-methylphenyl)-N-(3-morpholin-4-ylpropyl)-2-(2-oxo-1,2-dihydropyridin-3-yl)-1H-indole-5-carboxamide] | 80 to 100% | 80 to 100% | 50 to 79% | 50 to 79% | 80 to 100% | – | – | – | – | – |
| O=C(NCCCN1CCOCC1)c1ccc2[nH]c(-c3ccc[nH]c3=O)c(-c3ccc(F)c(F)c3)c2c1 [Compound 61, 3-(3,4-difluorophenyl)-N-(3-morpholin-4-ylpropyl)-2-(2-oxo-1,2-dihydropyridin-3-yl)-1H-indole-5-carboxamide] | 80 to 100% | 80 to 100% | 80 to 100% | 80 to 100% | 80 to 100% | – | – | – | – | – |
| O=C(NC1CCC1)c1ccc2[nH]c(-c3ccc[nH]c3=O)c(-c3ccccc3)c2c1 [Compound 26, N-cyclobutyl-2-(2-oxo-1,2-dihydropyridin-3-yl)-3-phenyl-1H-indole-5-carboxamide] | 80 to 100% | 80 to 100% | 80 to 100% | 80 to 100% | 80 to 100% | – | – | – | – | – |
| 3-biphenyl-4-yl-N-(2- chlorophenyl)-2-(2-oxo-1,2- dihydropyridin-3-yl)-1H- indole-5-carboxamide [Compound 35] | – | – | – | – | – | C (C = <50% inhibition) | C (C = <50% inhibition) | C (C = <50% inhibition) | C (C = <50% inhibition) | C (C = <50% inhibition) |
| O=C(NCCCN1CCOCC1)c1ccc2[nH]c(-c3ccc[nH]c3=O)c(-c3cc(F)ccc3F)c2c1 [Compound 60, 3-(2,5-difluorophenyl)-N-(3-morpholin-4-ylpropyl)-2-(2-oxo-1,2-dihydropyridin-3-yl)-1H-indole-5-carboxamide] | 80 to 100% | 80 to 100% | 50 to 79% | 50 to 79% | 80 to 100% | – | – | – | – | – |
| CN(C(=O)c1ccc2[nH]c(-c3ccc[nH]c3=O)c(-c3ccccc3)c2c1)c1ccc(F)cc1 [Compound 20, N-(4-fluorophenyl)-N-methyl-2-(2-oxo-1,2-dihydropyridin-3-yl)-3-phenyl-1H-indole-5-carboxamide] | 80 to 100% | 80 to 100% | 80 to 100% | 80 to 100% | 80 to 100% | – | – | – | – | – |
| O=C(NCCCN1CCOCC1)c1ccc2[nH]c(-c3ccc[nH]c3=O)c(-c3ccc(F)c(Cl)c3)c2c1 [Compound 76, 3-(3-chloro-4-fluorophenyl)-N-(3-morpholin-4-ylpropyl)-2-(2-oxo-1,2-dihydropyridin-3-yl)-1H-indole-5-carboxamide] | < 50% | 80 to 100% | 80 to 100% | 80 to 100% | 80 to 100% | – | – | – | – | – |
| COc1ccc(CNC(=O)c2ccc3[nH]c(-c4ccc[nH]c4=O)c(-c4ccccc4)c3c2)cc1OC [Compound 32, N-(3,4-dimethoxybenzyl)-2-(2-oxo-1,2-dihydropyridin-3-yl)-3-phenyl-1H-indole-5-carboxamide] | 80 to 100% | 80 to 100% | 50 to 79% | < 50% | 80 to 100% | – | – | – | – | – |
| CN1CCN(C(=O)c2ccc3[nH]c(-c4ccc[nH]c4=O)c(-c4ccc(-c5ccccc5)cc4)c3c2)CC1 [Compound 52, 3-{3-biphenyl-4-yl-5-[(4-methylpiperazin-1-yl)carbonyl]-1H-indol-2-yl}pyridin-2(1H)-one] | 80 to 100% | 80 to 100% | 80 to 100% | 80 to 100% | 80 to 100% | – | – | – | – | – |
